{
  "source": "patent US8603751B2",
  "about": "“Mycobacterial disease detection, treatment, and drug discovery” (priority 2006, dated 2013)",
  "key": {"Msm cells": {"tested_on": "Msm cells", "experiment": "Effect of screened compounds on cell viability (control plates of the M-PFC screen)", "conditions": "at high concentrations"}, "[1]": {"biological_target": "DevS(HKD)-DevR interaction (Mycobacterium tuberculosis, UniProt P9WMF9)", "sequence (P9WMF9 whole entry, looked up)": "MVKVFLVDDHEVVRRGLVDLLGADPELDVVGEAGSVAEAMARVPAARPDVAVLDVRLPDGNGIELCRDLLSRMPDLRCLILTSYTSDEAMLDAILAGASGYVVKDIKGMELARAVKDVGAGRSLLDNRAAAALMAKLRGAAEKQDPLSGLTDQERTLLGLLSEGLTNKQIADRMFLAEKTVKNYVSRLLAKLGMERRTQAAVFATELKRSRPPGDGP", "experiment": "M-PFC TRIM plate assay of the DevS(HKD)-DevR interaction", "type": "cell-based", "conditions": "10 and 25 μg/mL, TRIM plates, FIG. 12", "excerpt": "Additionally, whether inhibition of DevR dimerization effected upstream interactions with DevR and DevS (Rv3132c), a corresponding sensor histidine kinase involved in the Mycobacterium dormancy pathway was investigated."}, "[2]": {"biological_target": "T1, Esat6-Cfp10 (Rv3875-Rv3874) interaction (Mycobacterium tuberculosis, UniProt P9WNK5+P9WNK7)", "T1 construct": "The complete open reading frames (ORF) were cloned into pUAB100 and pUAB200; Gly10 linker + mDHFR fragment F[1,2]; Gly10 linker + mDHFR fragment F[3]; expressed in transfected cells; host or cells: Mycobacterium smegmatis", "T1 sequence (P9WNK7 whole entry, the tested form may be a part)": "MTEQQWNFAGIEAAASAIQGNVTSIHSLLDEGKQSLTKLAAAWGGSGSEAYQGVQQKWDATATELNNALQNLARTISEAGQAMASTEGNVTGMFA", "T1 sequence (P9WNK5 whole entry, the tested form may be a part)": "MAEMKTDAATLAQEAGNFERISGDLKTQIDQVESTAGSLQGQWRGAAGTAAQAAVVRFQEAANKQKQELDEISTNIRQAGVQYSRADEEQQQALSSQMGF", "experiment": "M-PFC counter-screen with the Esat6-Cfp10 interacting pair", "type": "cell-based"}, "Msm": {"tested_on": "Msm", "conditions": "on 7H11"}, "Mycobacterial cells": {"tested_on": "Mycobacterial cells", "experiment": "Viability of Mycobacterial cells with rapamycin", "conditions": "rapamycin concentrations as high as 200 μg/mL"}},
  "note": "“Also recorded” adds a separate entry of the source.",
  "data": [
    {"smiles": "Cl.Cn1c(=N)n(CC(=O)c2cc(C(C)(C)C)c(O)c(C(C)(C)C)c2)c2ccccc21", "note": "[1-(3,5-di-tert-butyl-4-hydroxyphenyl)-2-(2-imino-3-methyl-2,3-dihydro-1H-benzimidazol-1-yl)ethanone hydrochloride]", "values": [
      {"measurement": "effect on cell viability", "setting": "Msm cells", "result": "effect cell viability at high concentrations"}
    ]},
    {"smiles": "CC(=O)NS(=O)(=O)c1ccc(NC(=O)CCc2ccccc2)cc1", "note": "[N-(4-[(acetylamino)sulfonyl]phenyl)-3-phenylpropanamide]", "values": [
      {"measurement": "disruption of the DevS(HKD)-DevR interaction", "setting": "[1]", "result": "disrupt the DevS(HKD)-DevR interaction; also recorded: capable of disrupting the DevS(HKD)-DevR interaction"},
      {"measurement": "effect on the Esat6-Cfp10 interaction", "setting": "[2]", "result": "unaffected"}
    ]},
    {"smiles": "COc1cc(Cc2cnc(N)nc2N)cc(OC)c1OC", "note": "[TRIM, trimethoprim]", "values": [
      {"measurement": "TRIM concentration to which Msm is sensitive", "setting": "Msm", "result": "~40", "unit": "µg/mL"}
    ]},
    {"smiles": "CO[C@H]1C[C@@H]2CC[C@@H](C)[C@@](O)(O2)C(=O)C(=O)N2CCCC[C@H]2C(=O)O[C@H]([C@H](C)C[C@@H]2CC[C@@H](O)[C@H](OC)C2)CC(=O)[C@H](C)/C=C(\\C)[C@@H](O)[C@@H](OC)C(=O)[C@H](C)C[C@H](C)/C=C/C=C/C=C/1C", "note": "[rapamycin]", "values": [
      {"measurement": "viability of the Mycobacterial cells", "setting": "Mycobacterial cells", "result": "not effected"}
    ]}
  ]
}
